In US7220402B1, “Alpha-fetoprotein peptides and uses for imaging” (Ordway Research Institute, Inc., priority 2001, dated 2007):
“Also recorded” adds a separate entry of the source. Square brackets hold non-standard residues; d marks the D form. Ends that are not written are not given here. Hyp = O=C(O)[C@@H]1C[C@@H](O)CN1

Assays:
[1] = tested on: estrogen-receptor-positive T47D human breast cancer xenografts; experiment: Human breast cancer xenograft assay, T47D; type: in vivo; conditions: E2-supplemented SCID mice; peptide 1 μg i.p. twice a day; 30-day observation
[2] = tested on: MCF-7 human breast cancer xenografts; experiment: Human breast cancer xenograft assay, MCF-7; type: in vivo; conditions: E2-supplemented SCID mice; peptide 1 μg i.p. twice a day, tamoxifen 50 μg i.p. once a day; 30-day observation
Protocol: FIG. 5 illustrates the anti-estrotrophic activity of hydroxyproline-substituted linear peptide against MCF-7 human breast cancer xenografts. There were five to eight replicate mice per treatment group. Estrogen was provided via a slow release pellet implanted subcutaneously. Peptide was given twice a day i.p. at a dose of 1 μg per mouse. Tumor volumes in each mouse were measured at the time of tumor implantation and at 10-day intervals thereafter during survival laparotomies.
FIGS. 9a and 9b illustrate the effect of AFP-derived peptide on growth of estrogen-receptor-positive MCF-7 and MCF-7/Tarn human breast cancer xenografts. Tumors were implanted as described in Materials and Methods. […] Tumor volumes in each mouse were measured at the time of tumor implantation, again at day 15 after tumor implantation during survival laparotomy and again at day 30 after tumor implantation during necropsy. […]
(§1) Human Breast Cancer Xenograft Assay. […] Tumor growth was monitored during survival laparotomy at 10 day intervals by measurement of the diameters of the short (d) and long axes (D) of each tumor, using a dissecting microscope equipped with an ocular micrometer. Tumor volumes were calculated using the formula (π/6) (d)^2 D, assuming the tumor shape to be an ellipsoid of revolution around its long axis (D). […] Mean tumor volume±standard error in each group was calculated for display of growth curves. […]

[3] = tested on: estrogen-receptor-negative MDA-MB-231 human breast cancer xenografts; experiment: Human breast cancer xenograft assay, MDA-MB-231; type: in vivo; conditions: SCID mice, peptide 1 μg i.p. twice a day, tamoxifen 50 μg i.p. once a day, 30-day observation
immature mouse uterus = experiment: Uterotrophic effect of test agent alone on immature mouse uterus; conditions: agent alone i.p.; peptide up to 10 μg/mouse
Protocol: Various doses indicated on the abscissa of each test agent were injected i.p. Twenty-two hours later uteri were harvested and weighed. Mean normalized uterine weights (mg uterine weight/g mouse body weight) for each group are shown on the ordinate. In FIG. 13b, Pep (1 μg) or vehicle (saline, 0.2 ml) were injected i.p. One hour later E2 (0.5 μg) or Tam (1.0 μg) were injected i.p. Twenty-two hours later uteri were harvested and weighed.
A bioassay for anti-estrotrophic activity was performed using an immature mouse uterine growth assay (22). Swiss/Webster female mice, 6–8 g in body weight (13–15 days old), were obtained from Taconic Farms (Germantown, N.Y.). […] In a typical experiment, each group received two sequential intraperitoneal injections spaced one hour apart. Test material or vehicle control for that material was contained in the first injectant. Estradiol (E2) or vehicle control for E2 was contained in the second injectant. Twenty-two hours after the second injection, uteri were dissected, trimmed free of mesenteries, and immediately weighed. […] Experiments employed a minimum of five mice per group, and the mean normalized uterine weight±standard error for each group was calculated. Percent growth inhibition in a test group was calculated from the normalized uterine wet weights as described below. […]

[4] = tested on: MCF-7 human breast cancer xenografts; conditions: Bennett et al. 1998; cited from earlier work
[5] = tested on: MCF-7 subline made resistant to tamoxifen in culture (MCF-7/Tam xenografts); experiment: Human breast cancer xenograft assay, tamoxifen-resistant MCF-7 subline; type: in vivo; conditions: E2-supplemented SCID mice; peptide 1 μg i.p. twice a day, tamoxifen 50 μg i.p. once a day; day 30
Protocol: FIGS. 9a and 9b illustrate the effect of AFP-derived peptide on growth of estrogen-receptor-positive MCF-7 and MCF-7/Tarn human breast cancer xenografts. Tumors were implanted as described in Materials and Methods. Estrogen (●) was provided via a slow-release pellet of estradiol (E2) implanted s.c. Peptide (▴) was given twice a day i.p. at a dose of 1 μg per injection. […] Tumor volumes in each mouse were measured at the time of tumor implantation, again at day 15 after tumor implantation during survival laparotomy and again at day 30 after tumor implantation during necropsy. There was a minimum of 5 mice per group.
Cell Lines. T47D and MDA-231 human breast cancer cell lines were purchased from the American Type Culture Collection (Manassas, Va.). […]
as §1

[6] = tested on: tamoxifen-stimulated growth of immature mouse uterus; experiment: Inhibition of tamoxifen-stimulated growth of immature mouse uterus; type: in vivo; conditions: Pep 1 μg i.p. one hour before Tam 1.0 μg i.p., uteri weighed 22 h later
Excerpt: (§2) Immature Mouse Uterine Growth Assay.

[7] = Preliminary pharmacokinetic studies in mice; type: in vivo
[8] = tested on: E2-stimulated growth of immature mouse uterus; experiment: Immature mouse uterine growth assay (anti-estrotrophic activity); type: in vivo; conditions: for inhibition of the uterotrophic effect of estradiol: Pep 1 μg i.p. one hour before E2 0.5 μg i.p., uteri weighed 22 h later (FIG. 13b); for optimal dose for inhibition of estrogen-stimulated growth of mouse uterus: i.p., biphasic dose-response (FIG. 1a)
Protocol: FIGS. 1a and 1b illustrate the anti-uterotrophic activity of octapeptide, SEQ ID NO: 2, […], measured in the immature mouse uterine growth assay. Peptide or vehicle control was injected i.p. into immature female Swiss mice. One hour later 0.5 μg of E2 vehicle control was injected i.p. into these mice. Twenty-two hours later, uteri were dissected and weighed. Percent inhibition of E2-stimulated growth of uterus by peptide was calculated as described in Materials and Methods. There were five to eight replicate mice per treatment group.
as §2
Differences between groups were evaluated, employing the non-parametric Wilcoxon Sum of Ranks test (one-sided). In all cases, growth inhibitions that were greater than 25% were significant at p≦0.05.

estrogen receptor = target: T1, estrogen receptor (Oryctolagus cuniculus, UniProt G1SML6); experiment: Assessment of estrogen receptor antagonism ([3H]estradiol binding, rabbit uterine cytosol)
T1 sequence (G1SML6 1-598): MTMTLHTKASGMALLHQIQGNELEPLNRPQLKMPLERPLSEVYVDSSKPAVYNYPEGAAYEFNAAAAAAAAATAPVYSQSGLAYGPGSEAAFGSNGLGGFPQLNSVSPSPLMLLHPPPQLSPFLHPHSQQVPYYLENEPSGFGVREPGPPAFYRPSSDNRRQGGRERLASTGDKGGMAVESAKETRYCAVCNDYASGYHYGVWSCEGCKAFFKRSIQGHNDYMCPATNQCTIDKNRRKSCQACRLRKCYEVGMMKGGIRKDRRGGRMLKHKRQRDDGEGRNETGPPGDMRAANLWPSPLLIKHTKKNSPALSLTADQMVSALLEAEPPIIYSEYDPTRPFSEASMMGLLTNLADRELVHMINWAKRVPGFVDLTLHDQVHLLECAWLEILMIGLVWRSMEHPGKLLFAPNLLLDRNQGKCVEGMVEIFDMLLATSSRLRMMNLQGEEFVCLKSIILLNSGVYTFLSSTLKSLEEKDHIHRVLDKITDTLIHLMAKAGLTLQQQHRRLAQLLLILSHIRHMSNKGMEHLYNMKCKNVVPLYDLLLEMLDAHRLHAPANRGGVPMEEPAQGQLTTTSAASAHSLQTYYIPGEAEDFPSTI
Protocol: (§3) Rabbit uterine cytosol was used as a source of estrogen receptor.
as §3
Assessment of Estrogen Receptor Antagonism. Commercially obtained rabbit uteri (Pel-Freez Biological, Rogers, Ark.) were used as a source of estrogen receptor. […] Total count tubes received 20 μl of [3H]estradiol and 180 μl of assay buffer. After incubation overnight at 4° C., all but the total count tubes received 300 μl of dextran-coated charcoal suspension; tubes were agitated for 15 min and then centrifuged (1,000×g) for 15 min. Supernatants were decanted into counting vials, scintillant was added, and protein-bound tritium was determined by liquid scintillation counting.

Compound: CC/C(=C(\c1ccccc1)c1ccc(OCCN(C)C)cc1)c1ccccc1 [tamoxifen, reference compound]
- effect on growth (tumor volume vs E2 alone) of T47D xenografts [1]: prevented growth
- effect on growth (tumor volume vs E2 alone) of MCF-7 xenografts [2]: prevented growth; also recorded: no increase in tumor volume
- effect on growth of MDA-MB-231 xenografts [3]: Neither peptide nor tamoxifen were effective; also recorded: did not affect the growth
- uterotrophic effect on immature mouse uterus (immature mouse uterus): stimulate the growth of the immature mouse uterus
- effect on MCF-7 breast cancer xenograft growth in an earlier study [4]: shown to stop MCF-7 breast cancer xenograft growth
- effect on growth (tumor volume vs E2 alone) of tamoxifen-resistant MCF-7 subline xenografts [5]: resistant to tamoxifen in vivo; also recorded: only minimally effective

Compound: EMTOVNOG (EMT[Hyp]VN[Hyp]G; listed as Homo sapiens) [SEQ ID NO: 4]
- effect on growth (tumor volume vs E2 alone) of T47D xenografts [1]: completely prevented tumor growth
- effect on growth (tumor volume vs E2 alone) of MCF-7 xenografts [2]: prevented growth; also recorded: no significant increase in tumor volume
- effect on growth of MDA-MB-231 xenografts [3]: Neither peptide nor tamoxifen were effective; also recorded: no effect on the growth
- effect on growth of MDA-MB-231 xenografts ([3]; listed as AFP-derived peptide): no differences in tumor volumes between any of the groups
- inhibition of the uterotrophic effect of tamoxifen [6]: significantly inhibited
- inhibition of the uterotrophic effect of tamoxifen ([6]; listed as peptide): inhibited
- biological half-life [7]: two to three
- inhibition of the uterotrophic effect of estradiol ([8]; listed as Pep): significantly different
- inhibition of the uterotrophic effect of estradiol ([8]; listed as peptide): inhibited
- competition/interference with estrogen binding to the estrogen receptor (estrogen receptor; cell-free system, no concentration stated): does not interfere
- interference with E2 binding to ER (estrogen receptor; peptide concentration range of 10^−10M to 10^−5M): no interference
- effect on growth (tumor volume vs E2 alone) of tamoxifen-resistant MCF-7 subline xenografts [5]: completely prevented the xenograft growth; also recorded: completely stopped the growth

Compound: EMTPVNPG (listed as Homo sapiens) [SEQ ID NO: 6, amino acids 472–479 of alpha-fetoprotein]
- optimal dose for inhibition of estrogen-stimulated growth of mouse uterus [8]: ~1 μg/mouse
- biological activity of stored inactive peptide after brief treatment with 4M urea [8]: regenerated

Compound: QMTPVNPG (listed as Homo sapiens) [SEQ ID NO: 2]
- % Inhibition of E2-Stimulated Growth of Immature Mouse Uterus ± SE ([8]; Storage Time: Fresh, 1 μg peptide i.p.): 38 ± 3%
- % Inhibition of E2-Stimulated Growth of Immature Mouse Uterus ± SE ([8]; Stored over 1 year (lyophilized, −20° C.), 1 μg peptide i.p.): 0 ± 2%
- % Inhibition of E2-Stimulated Growth of Immature Mouse Uterus ± SE ([8]; after Urea Treatment (4 M urea, room temperature, one hour) of agent II (stored over 1 year) or IV (fresh), 1 μg i.p.): 34 ± 4%
- anti-estrotrophic activity after storage (shelf-life) ([8]; after five weeks of storage at −20° C. lyophilized, 1 μg per mouse (FIG. 1b)): diminished to insignificant levels
- optimal dose for inhibition of estrogen-stimulated growth of mouse uterus [8]: 1 μg/mouse
- biological activity of higher molecular weight gel-filtration fraction of aged peptide ([8]; left side of peak (FIG. 2b), 1 μg i.p.): biologically inactive
- biological activity of lower molecular weight gel-filtration fraction of aged peptide ([8]; right side of peak (FIG. 2b), 1 μg i.p.): active
- biological activity of aged peptide ([8]; stored in the lyophilized state at −20° C. for over one year): completely biologically inactive
- biological activity of stored inactive peptide after brief treatment with 4M urea [8]: restored its biological activity
